Laboratory results from paper PMC8929087, “Structural and Functional Characterization of a Novel Recombinant Antimicrobial Peptide from Hermetia illucens” (Current Issues in Molecular Biology, 2021).
Values after ≈ are worked out from the molar mass of the structure shown. Where a SMILES comes first, the peptide text is derived from it. Bridges are numbered along the chain shown (N, C = ends).

Tests used:
E. coli BL21 = type: cell-based, Escherichia coli; settings: BL21, 24 h
Method: (§1) The […] antimicrobial activity of the recombinant C-15867 peptide was evaluated against three different bacterial strains: E. coli BL21, Staphylococcus aureus NCTC 12493 and Staphylococcus. epidermidis ATCC 12228. The minimum inhibitory concentration (MIC) was determined as the lowest concentration showing no visible growth after 24 h of incubation at 37 °C.
(§2) Figure 5 Determination of C-15867 minimum inhibitory concentration (MIC). All bacteria cells were grown in the presence of serial dilution of peptide from 248 µM to 0.56 µM and incubated at 37 °C for 24 h. The error bars on the graphs stand for the standard deviation from the mean of three experiments.
(§3) The procedure was performed using medium as negative control and cells approximately 5 × 10^5 CFU/mL as positive control to monitor the normal growth of bacteria.

[1] = tested on: Staphylococcus aureus NCTC 12493; type: cell-based; settings: NCTC 12493, 24 h
Method: as §1, §2, §3

[2] = tested on: Staphylococcus epidermidis ATCC 12228; experiment: Minimum inhibitory concentration (MIC) determination; type: cell-based; settings: serial dilution of peptide 248 to 0.5 μM, 24 h at 37 °C
Method: as §1, §2, §3

[3] = tested on: E. coli BL21 membrane permeability; experiment: Crystal violet assay of membrane permeability; type: cell-based, Escherichia coli; settings: sub-mic concentration (9 µM) of peptide, LB broth, 37 °C, OD590 of supernatant
Method: With C-15867 being a defensin-like AMP, we investigated the effect of the peptide, if any, on E. coli BL21 membrane permeability using the crystal violet assay. Bacterial cells were grown in the presence of a sub-mic concentration (9 µM) of the peptide and the uptake of crystal violet was monitored at different times of incubation.
Figure 6 Effect of C-15867 on E. coli BL21 membrane permeability. The uptake of crystal violet was calculated in the presence of sub-mic concentration (9 µM) of the peptide.
The alteration in membrane permeability was detected by crystal violet assay. Bacterial cells were grown in LB broth at 37 °C in the presence of […] peptide for 1 and 3 h. Subsequently, the cells were harvested at 9300× g for 5 min and then the cells were resuspended in 1× PBS containing 10 µg/mL of crystal violet. The cell suspension was incubated for 10 min at 37 °C and then centrifuged at 13,400× g for 15 min and the OD590 of the supernatant was measured at the spectrophotometer. Control samples were prepared similarly without treatment. The OD value of the crystal violet solution, which was originally used in the assay, was taken and it was considered as 100%. The percentage of crystal violet uptake of all the samples was quantified according to the following formula: OD value of the sample/OD value of the crystal violet solution 100×.

E. coli Bl21 cells = experiment: Scanning electron microscopy (SEM) of cell morphology; type: cell-based, Escherichia coli; settings: sub-mic concentration (9 µM) of peptide, 3 h incubation at 37 °C, compared with untreated cells
Method: The effect of C-15867 on the morphology of E. coli BL21 cells was also assessed by SEM microscopy analyses. Bacterial cells were treated with a sub-mic concentration (9 µM) of the antimicrobial peptide and SEM analyses were carried out after 3 h of incubation in comparison with untreated cells.
The cell wall and the cell surface were rough gradually forming pores with subsequent leakage of cytoplasmic material confirming the disrupting effect of the antimicrobial peptide on the bacterial membrane.
Figure 7 Scanning electron microscopy of E. coli BL2_1 cells following 3 h treatment with a sub-mic concentration (9 µM) of the antimicrobial peptide C-15867 (d–f) in comparison with untreated cells (a–c). The scale bar was 2 µm in panel (a), 500nm in panel (b,c) and 1µm in panel (d–f).
E. coli BL21 cells were grown in the absence and in the presence of native C15867 peptide at 37 °C for 3 h. Samples from each culture were fixed in 2.5% glutaraldehyde solution for 16 h. Following the incubation, the bacterial cells were washed with 0.1 M PBS (pH 7.2) and dehydrated in a series of ethanol solutions ranging from 30 to 100%, followed by three washes with 100% ethanol. E. coli cells were deposited onto glass substrate first sputter coated with a thin layer of Au-Pd alloy (Denton Vacuum Desk V Magnetron Sputtering) to allow subsequent morphological characterization using a FEI Nova NanoSEM 450.

For `CC[C@H](C)[C@@H]1NC(=O)[C@@H]2CSSC[C@@H](C(=O)N[C@@H](CCCNC(=N)N)C(=O)O)NC(=O)[C@H](C(C)C)NC(=O)[C@@H]3CSSC[C@H](NC(=O)[C@@H]4CCCN4C(=O)[C@H](C)NC(=O)[C@H](CCCNC(=N)N)NC(=O)CNC(=O)[C@H](Cc4ccccc4)NC(=O)[C@H](Cc4ccccc4)NC(=O)[C@@H]4CCCN4C(=O)[C@H](CCCCN)NC(=O)[C@H](CC(C)C)NC(=O)[C@H](CC(C)C)NC(=O)[C@H](CC(=O)O)NC(=O)[C@@H](NC(=O)[C@@H](NC(=O)[C@@H](N)C(C)C)[C@@H](C)O)CSSC[C@H](NC(=O)[C@H](Cc4ccccc4)NC(=O)CNC(=O)[C@H]([C@@H](C)O)NC(=O)[C@H](CCCNC(=N)N)NC(=O)[C@H](CCCCN)NC(=O)[C@H](CCCCN)NC(=O)[C@H](Cc4ccccc4)NC(=O)[C@H](CCCNC(=N)N)NC(=O)[C@H](CC(C)C)NC1=O)C(=O)N[C@@H](CO)C(=O)N[C@@H](CCCNC(=N)N)C(=O)N[C@@H](CCC(N)=O)C(=O)N[C@@H](CC(N)=O)C(=O)N[C@@H](C(C)C)C(=O)N3)C(=O)N[C@@H](CCSC)C(=O)N[C@@H](CCSC)C(=O)N[C@@H](Cc1c[nH]cn1)C(=O)N2` [C-15867] (H-VTCDLLKPFFGRAPCMMHCILRFKKRTGFCSRQNVCVCR-OH; disulfide 3-30, 15-36, 19-38; N-terminus and C-terminus assumed), the “minimum inhibitory concentration (MIC)” value (E. coli BL21) was 36 µM (≈ 164 µg/mL), the “minimum inhibitory concentration (MIC)” value [1] was 36 µM (≈ 164 µg/mL) and the “antimicrobial effect (in words)” value [2] was “strong antimicrobial effect”. For the same compound, the “increase in the uptake of crystal violet” value ([3]; 1 h of treatment) was 22%, the “increase in the uptake of crystal violet” value ([3]; 3 h of treatment) was 34% and the “cell morphology by SEM (in words)” value (E. coli Bl21 cells) was “severe morphological changes”.
